Experimental data reported in patent US20090005711A1, “Systems and methods for opening of the blood-brain barrier of a subject using ultrasound” (priority 2005, published 2009).

How the values were obtained:
[1] = tested on: left hippocampus (BBB opening and closure); experiment: 9.4 T MRI of gadolinium deposition after FUS with SonoVue in APP/PS1 and NTg mice (Example C); assay type: in vivo, mouse
Text: In an example, transgenic mice expressing mutant human APPK670N,M671L protein (line Tg2576) and a line of mice expressing human mutant PS1M146V protein (line 8.9) were crossed to generate offspring: doubly transgenic APP/PS1 animals and wild-type NTg littermates A total of six mice (age: 12 months, mass: 26-37 g) were used: transgenic APP/PS1 (n=3) and NTg (m=3) mice.
The experimental timeline is depicted in FIG. 17. Each mouse 180 with intact skin and skull 182 was anesthetized using 1.25-2.50% isoflurane (SurgiVet, Smiths Medical PM, Inc., Wisconsin, USA) and placed prone with its head immobilized by a stereotaxic apparatus 184 (David Kopf Instruments, Tujunga, Calif.) that included a mouse head holder, ear bars, and a gas anesthesia mask (FIG. 16). […] A degassed water-filled container 186 sealed at the bottom with a thin, acoustically and optically transparent, Saran™ Wrap (Saran, SC Johnson, Racine, Wis., USA) was placed on top of the mouse head (FIG. 16). Ultrasound coupling gel 188 was also used to eliminate any remaining impedance mismatch.
FIG. 18(A) illustrates the frontal bone 200, sagittal suture 202, lambdoid suture 204, left parietal bone 206, right parietal bone 208, and intraparietal bone 210. […] The beam axis of the transducer was aligned 2.25 mm away from the sagittal suture 202 and 2 mm away from the lambdoid suture 204 (FIG. 18(A)). The focal point was placed 3 mm beneath the top of the parietal bone of the skull (dotted line in FIG. 18(A)). In this placement, the focus of the FUS beam overlapped with the left hippocampus 212 and the left posterior cerebral artery (PCA) (FIG. 18(A)-(B)). […] After the BBB opening, gadolinium was injected and monitored with MRI (FIG. 18(C). The horizontal slices shown in FIGS. 18(B)-(C) were obtained approximately 3 mm beneath the top of the skull. […]
A vertical bore 9.4-Tesla MR scanner (Bruker Medical, Boston, Mass., USA) was used to acquire images of mouse brains in two separate sessions. […] 1-2% isoflurane was administered while the respiration rate of the mouse was monitored throughout the entire MRI procedure. […]

[2] = tested on: left hippocampus of the mouse brain (BBB opening)
Experimental: Brown CB57-b16 type mice (Charles River Laboratories, Wilmington, Mass., USA; mass: 23 to 28 g) were used in sonication procedures. The mice were anesthetized with a mixture of ketamine (Fort Dodge Animal Health, Fort Dodge, Iowa, USA; concentration: 75 mg per kg of body mass) and xylazine (Ben Venue Laboratories, Bedford, Ohio, USA; concentration: 3.75 mg per kg of body mass). Before sonication, the hair on the top of the mouse heads was removed using an electric trimmer and a depilatory cream. After sonication, but before MRI scanning, the mice were switched to administration of isoflurane to simplify the long anesthesia procedure necessary for MRI scanning. During all imaging procedures, the vital signs of the mice were continuously monitored.
Ultrasound gel was used further to reduce any remaining impedance mismatches between the thin plastic layer 138 and the mouse skin.
The focus of the transducer 102 was positioned inside the mouse brain using a grid positioning method, as discussed above. In this method, the sutures of the mouse skull seen through the skin were used as anatomic landmarks for targeting purposes. The location of the hippocampi were assumed relative to the sutures based on the mouse brain and known skull anatomy, as illustrated in FIG. 4. […] In CB57-b16 type mice, these were the sutures that could be clearly seen through the skin.
Ultrasound contrast medium was administered for transport across the BBB. A bolus of 10 μL (approximately 0.4 mL/kg) of ultrasound contrast agent (Optison) that contained microbubbles (mean diameter: 3.0 to 4.5 μm: concentration: 5.0 to 8.0×108 bubbles per mL) was injected into the right femoral vein of the mouse approximately 15 minutes before sonication (Table 1). Pulsed-wave FUS (burst rate: 10 Hz; burst duration: 20 ms; duty cycle: 20%; acoustic pressures at the focus: 2.0, 2.5 and 2.7 MPa) was then applied in a series of five shots lasting 30 seconds each with a 30 second delay between each shot. The FUS sonication procedure was performed once in each mouse brain. […]

[Gd] [gadolinium]
Contrast enhancement on MR images, day 1 ([1]; 0.64 MPa, 25 μl SonoVue, scans 90 min post-sonication, 90 min post-gadolinium injection (0.75 ml IP)): the entire left hippocampus and some of its surrounding regions were contrast-enhanced | Area and degree of contrast enhancement, day 2 ([1]; 0.64 MPa, 25 μl SonoVue, scans 22 hours post-sonication, second gadolinium injection, compared with day 1): significantly reduced | Residual gadolinium in pre-gadolinium T1 and T2-weighted images ([1]; before the day 2 scan (22 hours post-sonication)): no residual gadolinium | Contrast enhancement / permeation on T1 MRI scans [2]: eventually encompassing the entire left hippocampus | Contrast enhancement / BBB opening on T1 MRI scans ([2]; in vivo, ip): highly localized opening of the BBB near the PCA | Contrast enhancement on T1 MRI scans ([2]; in vivo, ip): no contrast enhancement was observed
